# Active and inactive are the calls of the source. No cut-off for these calls is given here.
# Assays:
# [1] = Inhibition of C-terminal his6-tagged full length recombinant mouse Endoplasmic reticulum alpha-glucosidase 1 (59 to 834 residues) expressed in FreeStyle 293-F cells using trisaccharide as substrate preincubated for 60 mins followed by substrate addition and measured for 90 mins by Amplex Red assay
# [2] = Inhibition of mouse recombinant alpha-glucosidase using 4-methylumbelliferyl-[…]-D-glucopyranoside as substrate preincubated for 60 mins followed by substrate addition and measured after 30 mins by fluorescence based analysis
# [3] = Cytotoxicity against human A549-ACE2 cells infected with SARS-CoV-2 USA-WA1/2020 assessed as reduction in cell viability at 25 uM measured for 3 days by WST-1 assay relative to control; format: toxicity, cell-based; conditions: a549-ace2, 72 h, time 3 day
# [4] = Cytotoxicity against human A549-ACE2 cells infected with SARS-CoV-2 USA-WA1/2020 assessed as reduction in cell viability measured for 3 days by WST-1 assay; format: toxicity, cell-based; conditions: a549-ace2, 72 h, time 3 day
# SARS-CoV-2 [5] = experiment: Antiviral activity against SARS-CoV-2 USA-WA1/2020 infected in human A549-ACE2 cells assessed as reduction in viral burden measured upto 4 days by viral plaque assay; format: functional, organism-based; conditions: Severe acute respiratory syndrome coronavirus 2, USA-WA1/2020, A549-ACE2, 96 h
# SARS-CoV-2 [6] = experiment: Antiviral activity against SARS-CoV-2 USA-WA1/2020 infected in human A549-ACE2 cells assessed as maximum reduction in viral burden up to 100 uM measured upto 4 days by viral plaque assay; format: functional; conditions: Severe acute respiratory syndrome coronavirus 2, time <= 4.0 day
SMILES,IC50 [1],IC50 [2],Activity [3],CC50 [4],EC50 (SARS-CoV-2 [5]),Activity (SARS-CoV-2 [6])
Cc1cc(-c2ccco2)ccc1NCc1ccc(CN2C[C@H](O)[C@@H](O)[C@H](O)[C@H]2CO)cc1,< 1 nM,318 nM,82.6%,29500 nM,> 25000 nM,–
COCCCCCCCCCN1C[C@H](O)[C@@H](O)[C@H](O)[C@H]1CO,537 nM,68 nM,–,–,–,–
[N-]=[N+]=Nc1ccc(NCCCCCCN2C[C@H](O)[C@@H](O)[C@H](O)[C@H]2CO)c([N+](=O)[O-])c1,155 nM,10 nM,100%,> 100000 nM,580 nM,–
[N-]=[N+]=Nc1ccc(NCCOC(=O)NCCN[C@H]2C[C@](O)(CO)[C@@H](O)[C@H](O)[C@H]2O)c([N+](=O)[O-])c1,1130 nM,–,–,–,–,–
O=[N+]([O-])c1cc(-c2noc(C3CCC3)n2)ccc1NCCCCCCN1C[C@H](O)[C@@H](O)[C@H](O)[C@H]1CO,11 nM,< 1 nM,100%,40700 nM,720 nM,–
CS(=O)(=O)c1cc(Br)cc(NCc2cccc(CN3C[C@H](O)[C@@H](O)[C@H](O)[C@H]3CO)c2)c1,19 nM,7920 nM,100%,> 100000 nM,–,–
Cc1nc2cc(-c3ncccn3)ccc2n1CCCCCCN1C[C@H](O)[C@@H](O)[C@H](O)[C@H]1CO,78 nM,194 nM,80.8%,> 100000 nM,12200 nM,–
O=[N+]([O-])c1cc(-c2ccnc(N3CCOCC3)n2)ccc1NCCCCCCN1C[C@H](O)[C@@H](O)[C@H](O)[C@H]1CO,< 1 nM,< 1 nM,58.6%,–,–,inactive
CS(=O)(=O)c1cc(NCc2cccc(CN3C[C@H](O)[C@@H](O)[C@H](O)[C@H]3CO)c2)cc(-c2ccccc2)c1,17 nM,4600 nM,40.8%,–,–,inactive
COCCCCCCCCCN1C[C@H](O)[C@@H](O)[C@H](O)[C@H]1CO.Cl,–,–,100%,> 100000 nM,3320 nM,–
O=[N+]([O-])c1cc(N2CCOCC2)ccc1NCc1cccc(CN2C[C@H](O)[C@@H](O)[C@H](O)[C@H]2CO)c1,99 nM,12800 nM,36.5%,–,–,inactive
O=[N+]([O-])c1cc(N2C3CCC2COC3)ccc1NCCCCCCN1C[C@H](O)[C@@H](O)[C@H](O)[C@H]1CO,52 nM,30 nM,98.9%,> 100000 nM,1610 nM,–
Cc1cc(NCc2cccc(CN3C[C@H](O)[C@@H](O)[C@H](O)[C@H]3CO)c2)cc(-c2ncccn2)c1,44 nM,66500 nM,52.9%,–,–,inactive
O=[N+]([O-])c1cc(-n2cccn2)ccc1NCCCCCCN[C@H]1C[C@](O)(CO)[C@@H](O)[C@H](O)[C@H]1O,–,–,85.6%,> 100000 nM,–,–
OC[C@@H]1[C@@H](O)[C@H](O)[C@@H](O)CN1Cc1ccc(CNc2ccc(N3CCOCC3)cc2)cc1,122 nM,1580 nM,97.6%,> 100000 nM,–,–
[N-]=[N+]=Nc1ccc(NCCc2cncc(CCN3C[C@H](O)[C@@H](O)[C@H](O)[C@H]3CO)n2)c([N+](=O)[O-])c1,94 nM,3 nM,38.8%,–,–,inactive

SMILES,IC50 [1],IC50 [2],Activity [3],CC50 [4],EC50 (SARS-CoV-2 [5]),Activity (SARS-CoV-2 [6])
C[C@@H]1CN(c2ccc(NCc3ccc(CN4C[C@H](O)[C@@H](O)[C@H](O)[C@H]4CO)cc3)c([N+](=O)[O-])c2)C[C@H](C)O1,1 nM,4 nM,51.5%,–,–,inactive
OC[C@@H]1[C@@H](O)[C@H](O)[C@@H](O)CN1CCCCCCNc1cc(-c2cccnn2)cc(C2CC2)c1,103 nM,12 nM,100%,> 100000 nM,7860 nM,–
Cc1cc(NCc2cccc(CN3C[C@H](O)[C@@H](O)[C@H](O)[C@H]3CO)n2)cc(-c2ccc[nH]2)c1,966 nM,> 100000 nM,54.1%,–,–,inactive
O=[N+]([O-])c1cc(-c2ccccc2)ccc1NCCCCCCN1C[C@H](O)[C@@H](O)[C@H](O)[C@H]1CO,57 nM,< 1 nM,100%,> 100000 nM,420 nM,–
Cc1nc(-c2ccc(NCCCCCCN3C[C@H](O)[C@@H](O)[C@H](O)[C@H]3CO)c([N+](=O)[O-])c2)no1,99 nM,3 nM,100%,> 100000 nM,440 nM,–
OC[C@@H]1[C@@H](O)[C@H](O)[C@@H](O)CN1CCCCCCCCc1ccco1,139 nM,35 nM,95.7%,35000 nM,3360 nM,–
O=[N+]([O-])c1cc(-n2nccn2)ccc1NCCCCCCN[C@H]1C[C@](O)(CO)[C@@H](O)[C@H](O)[C@H]1O,47 nM,< 1 nM,–,–,–,–
COCCc1ccc(CCCCCN2C[C@H](O)[C@@H](O)[C@H](O)[C@H]2CO)cc1,1160 nM,76 nM,–,–,–,–
O=[N+]([O-])c1cc(NCCCCCCN2C[C@H](O)[C@@H](O)[C@H](O)[C@H]2CO)cc(-c2ccncc2)c1,1 nM,< 1 nM,87.2%,54200 nM,–,–
N#Cc1cc(NCc2cccc(CN3C[C@H](O)[C@@H](O)[C@H](O)[C@H]3CO)c2)cc(C2=COCCO2)c1,3 nM,2670 nM,100%,> 100000 nM,–,–
OC[C@@H]1[C@@H](O)[C@H](O)[C@@H](O)CN1CCc1ccc(CCNc2cc(O)cc(-c3cccnn3)c2)cc1,211 nM,< 1 nM,93.5%,> 100000 nM,–,–
OC[C@@H]1[C@@H](O)[C@H](O)[C@@H](O)CN1CCc1ccc(CCNc2cc(O)cc(-c3ncon3)c2)cc1,1010 nM,295 nM,83.8%,> 100000 nM,–,–
CS(=O)(=O)c1cc(NCc2ccc(CN3C[C@H](O)[C@@H](O)[C@H](O)[C@H]3CO)cc2)cc(-c2cccnn2)c1,21 nM,114 nM,99.2%,> 100000 nM,–,–
Cc1cc(NCc2ccc(CN3C[C@H](O)[C@@H](O)[C@H](O)[C@H]3CO)cc2)cc(-c2cccnn2)c1,73 nM,179 nM,73.7%,–,–,inactive
CCCCN[C@H]1C[C@](O)(CO)[C@@H](O)[C@H](O)[C@H]1O,29500 nM,–,–,–,–,–
O=[N+]([O-])c1cc(N2[C@@H]3CC[C@H]2COC3)ccc1NCc1ccc(CN2C[C@H](O)[C@@H](O)[C@H](O)[C@H]2CO)cc1,< 1 nM,< 1 nM,75%,39800 nM,–,–

# From ChEMBL document CHEMBL5316342, “Structure-Based Design of Potent Iminosugar Inhibitors of Endoplasmic Reticulum α-Glucosidase I with Anti-SARS-CoV-2 Activity” (J Med Chem, 2023)
